{"source": "patent US11564911B2", "about": "“Small molecule dual-inhibitors of TRPV4 and TRPA1 for sanitizing and anesthetizing” (Duke University, priority 2016, dated 2023)", "key": {"[1]": {"system": "BL6 mice, whisker-pad injection of formalin", "assay": "Formalin-evoked nocifensive behavior, compound pre-injected into the whiskerpad", "assay_type": "in vivo, mouse", "settings": "0.5 mM/10 μL pre-injected into whiskerpad 15 min before formalin", "method": "Compounds were tested for their effect in reducing pain using an in vivo pain model in mice. For mouse formalin-evoked irritant behavior measurements, mice were well-fed, well-rested, and tested at the same time of day, at the same time-point of their circadian rhythm. They were allowed to acclimate to a plexiglas chamber for at least 30 min before testing, and received 10 μL subcutaneous injection of 4% of formalin (diluted from an aqueous solution of commercial 37% formaldehyde with normal saline (NS)) through a 30-gauge needle into the right whiskerpad, as further detailed in Luccarini et al. (J. Pain, 2006, 7, 908-914). Normal saline was used as control injection. After injection, mice were immediately placed back into the chamber and the rubbing behavior was recorded by a private consumer-type video-camera for a 45 min observation period. The recording time was divided into 9 blocks of 5 min, and a nociceptive score was determined per block by measuring the time that the animals spent rubbing the injected area predominantly with the ipsilateral fore-paw and rarely with hind-paw. This rubbing behavior with fore-paw is evoked by pain, which is distinct from itch behavior. Behavioral analysis was conducted by observers blinded to treatment.\nTo investigate the effects of the specific compounds GSK205, 16-8, and 16-19 on formalin-induced nociceptive behavior, mice received a single subcutaneous injection of the compounds into the whiskerpad (10 μL, dissolved in 4% DMSO) 15 min before formalin injection. Control animals received the same volume of NS, 4% DMSO."}, "TRPV4 (rat)": {"target": "T1, TRPV4 (rat) (Rattus norvegicus, UniProt Q9ERZ8)", "T1 construct": "expressed in transfected cells; host or cells: N2a (mouse neuroblastoma) cells", "T1 sequence (Q9ERZ8 whole entry)": "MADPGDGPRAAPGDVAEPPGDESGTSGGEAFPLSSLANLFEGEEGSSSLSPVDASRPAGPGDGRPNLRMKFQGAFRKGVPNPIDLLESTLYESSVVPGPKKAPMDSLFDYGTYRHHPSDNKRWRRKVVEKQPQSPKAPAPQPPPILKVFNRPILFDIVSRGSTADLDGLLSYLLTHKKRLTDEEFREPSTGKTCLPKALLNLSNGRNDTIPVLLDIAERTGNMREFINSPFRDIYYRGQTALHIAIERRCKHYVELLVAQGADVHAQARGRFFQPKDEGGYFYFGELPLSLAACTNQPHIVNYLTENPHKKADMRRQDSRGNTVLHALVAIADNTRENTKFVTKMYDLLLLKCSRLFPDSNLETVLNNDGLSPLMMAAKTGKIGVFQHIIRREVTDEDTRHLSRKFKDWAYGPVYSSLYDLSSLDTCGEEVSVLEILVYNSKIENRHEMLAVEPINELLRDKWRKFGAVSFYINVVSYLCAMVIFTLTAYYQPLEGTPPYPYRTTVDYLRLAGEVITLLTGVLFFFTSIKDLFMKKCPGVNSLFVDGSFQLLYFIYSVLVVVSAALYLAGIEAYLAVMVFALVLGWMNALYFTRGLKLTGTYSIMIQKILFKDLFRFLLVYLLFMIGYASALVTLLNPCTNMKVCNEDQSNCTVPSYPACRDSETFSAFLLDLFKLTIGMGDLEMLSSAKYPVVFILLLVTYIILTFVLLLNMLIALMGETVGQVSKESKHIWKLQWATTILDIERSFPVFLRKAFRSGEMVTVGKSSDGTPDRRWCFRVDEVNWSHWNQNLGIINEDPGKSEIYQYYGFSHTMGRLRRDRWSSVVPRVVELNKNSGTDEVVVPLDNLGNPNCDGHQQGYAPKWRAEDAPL", "assay": "Ca++ imaging in N2a cells with directed expression of TRPV4, activation with GSK101", "assay_type": "cell-based", "settings": "for IC50: N2a cells, rat TRPV4, 5 nM GSK101, averaged peak ΔCa++, read-out: IC50, inhibition of TRPV4-mediated Ca++ influx; for inhibition of TRPV4-mediated Ca++ influx, first round screening: inhibitor 5 μM, 5 nM GSK101", "description": "FIGS. 26A-26B: Assessment of compounds in N2a cells with directed expression of TRPV4. […] The number on each bar corresponds to average peak ΔCa++ concentrations in ≈100 cells. […] Plot generated from averaged peak ΔCa++ concentration of 75 cells per data-point."}, "TRPA1 (mouse)": {"target": "T2, TRPA1 (mouse) (Mus musculus, UniProt Q8BLA8)", "T2 construct": "expressed in transfected cells; host or cells: N2a cells, eGFP co-transfected", "T2 sequence (Q8BLA8 whole entry)": "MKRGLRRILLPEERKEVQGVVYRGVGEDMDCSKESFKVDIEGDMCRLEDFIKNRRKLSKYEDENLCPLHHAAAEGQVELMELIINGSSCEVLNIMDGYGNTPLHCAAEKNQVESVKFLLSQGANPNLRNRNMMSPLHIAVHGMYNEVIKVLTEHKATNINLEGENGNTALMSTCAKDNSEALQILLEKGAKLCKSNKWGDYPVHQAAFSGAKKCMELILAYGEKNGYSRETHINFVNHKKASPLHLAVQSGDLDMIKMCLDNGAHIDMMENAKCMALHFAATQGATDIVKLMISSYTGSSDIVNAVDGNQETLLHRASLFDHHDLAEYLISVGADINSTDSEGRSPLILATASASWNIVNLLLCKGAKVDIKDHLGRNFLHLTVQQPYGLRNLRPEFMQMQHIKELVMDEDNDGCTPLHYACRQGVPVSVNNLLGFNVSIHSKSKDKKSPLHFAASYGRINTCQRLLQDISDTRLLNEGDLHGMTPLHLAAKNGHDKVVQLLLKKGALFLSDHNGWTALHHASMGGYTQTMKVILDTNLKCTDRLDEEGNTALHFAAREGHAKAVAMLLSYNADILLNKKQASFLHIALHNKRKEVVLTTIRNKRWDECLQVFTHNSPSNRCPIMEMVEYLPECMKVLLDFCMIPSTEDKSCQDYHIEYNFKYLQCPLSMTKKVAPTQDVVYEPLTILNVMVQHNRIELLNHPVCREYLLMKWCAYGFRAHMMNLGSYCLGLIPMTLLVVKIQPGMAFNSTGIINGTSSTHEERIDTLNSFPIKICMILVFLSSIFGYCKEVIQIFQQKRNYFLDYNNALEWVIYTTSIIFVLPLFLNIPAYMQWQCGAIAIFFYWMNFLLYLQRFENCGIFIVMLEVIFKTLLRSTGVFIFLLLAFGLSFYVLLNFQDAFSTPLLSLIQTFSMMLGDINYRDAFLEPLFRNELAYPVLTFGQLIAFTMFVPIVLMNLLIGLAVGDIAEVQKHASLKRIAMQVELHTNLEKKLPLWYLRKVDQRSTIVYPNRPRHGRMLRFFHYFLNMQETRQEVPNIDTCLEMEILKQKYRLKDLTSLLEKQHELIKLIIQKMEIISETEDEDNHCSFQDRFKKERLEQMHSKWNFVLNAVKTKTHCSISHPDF", "assay": "Ca++ imaging in N2a cells with directed expression of TRPA1, mustard oil activation", "assay_type": "cell-based", "settings": "mouse TRPA1, 100 μM mustard oil, read-out: IC50, inhibition of TRPA1", "description": "Mean±SEM is shown, ≥100 cells per condition. […] Plot generated from averaged peak ΔCa++ concentration of […] per data-point."}, "human TRPA1": {"target": "T3, human TRPA1 (Homo sapiens, UniProt O75762)", "T3 construct": "expressed in transfected cells; host or cells: N2a cells, co-transfected with eGFP plasmid", "T3 sequence (O75762 whole entry)": "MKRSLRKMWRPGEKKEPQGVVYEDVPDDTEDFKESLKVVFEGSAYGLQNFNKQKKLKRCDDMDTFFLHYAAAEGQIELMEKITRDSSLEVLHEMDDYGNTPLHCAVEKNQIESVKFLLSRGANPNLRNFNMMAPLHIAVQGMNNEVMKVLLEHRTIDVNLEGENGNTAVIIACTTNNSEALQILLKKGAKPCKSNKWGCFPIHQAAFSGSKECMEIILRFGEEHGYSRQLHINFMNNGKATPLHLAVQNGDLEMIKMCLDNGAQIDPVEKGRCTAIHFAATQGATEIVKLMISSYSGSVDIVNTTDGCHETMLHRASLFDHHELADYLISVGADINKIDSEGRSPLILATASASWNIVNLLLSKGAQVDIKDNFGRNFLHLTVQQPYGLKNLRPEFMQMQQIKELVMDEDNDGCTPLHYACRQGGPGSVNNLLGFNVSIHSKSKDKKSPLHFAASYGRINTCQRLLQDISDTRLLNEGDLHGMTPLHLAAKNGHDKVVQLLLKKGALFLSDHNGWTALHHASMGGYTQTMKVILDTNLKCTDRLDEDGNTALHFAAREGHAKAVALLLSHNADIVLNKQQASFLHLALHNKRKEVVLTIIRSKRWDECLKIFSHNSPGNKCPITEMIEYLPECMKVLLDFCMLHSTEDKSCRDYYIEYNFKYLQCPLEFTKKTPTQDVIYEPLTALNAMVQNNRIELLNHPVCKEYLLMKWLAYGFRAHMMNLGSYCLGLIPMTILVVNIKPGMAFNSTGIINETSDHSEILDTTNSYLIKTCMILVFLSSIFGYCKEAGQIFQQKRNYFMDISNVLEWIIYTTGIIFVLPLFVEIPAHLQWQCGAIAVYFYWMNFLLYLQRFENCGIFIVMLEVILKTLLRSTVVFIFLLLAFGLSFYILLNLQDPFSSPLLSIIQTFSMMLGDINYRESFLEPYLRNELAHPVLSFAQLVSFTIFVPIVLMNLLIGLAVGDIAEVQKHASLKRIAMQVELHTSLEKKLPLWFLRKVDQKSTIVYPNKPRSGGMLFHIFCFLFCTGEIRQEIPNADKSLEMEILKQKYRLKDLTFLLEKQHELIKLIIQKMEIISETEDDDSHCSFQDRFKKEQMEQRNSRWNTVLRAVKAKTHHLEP", "assay": "Ca2+ transient in N2a cells transfected with human TRPA1, AITC activation", "assay_type": "cell-based", "settings": "GSK205: doses below or equaling 25 μM", "method": "Compounds were tested for their effect on TRPA1. N2a permanent cells were transfected with human TRPA1 cDNA, using a pcDNA3.1 expression plasmid. They were co-transfected with eGFP-expressing plasmid, or, for control, with eGFP plasmid only.\nCells were then pre-exposed to 5 μM of compounds 16-8 and 16-19 for 10 min."}, "TRPV4": {"target": "TRPV4 (Homo sapiens, UniProt Q9HBA0)", "sequence (Q9HBA0 whole entry)": "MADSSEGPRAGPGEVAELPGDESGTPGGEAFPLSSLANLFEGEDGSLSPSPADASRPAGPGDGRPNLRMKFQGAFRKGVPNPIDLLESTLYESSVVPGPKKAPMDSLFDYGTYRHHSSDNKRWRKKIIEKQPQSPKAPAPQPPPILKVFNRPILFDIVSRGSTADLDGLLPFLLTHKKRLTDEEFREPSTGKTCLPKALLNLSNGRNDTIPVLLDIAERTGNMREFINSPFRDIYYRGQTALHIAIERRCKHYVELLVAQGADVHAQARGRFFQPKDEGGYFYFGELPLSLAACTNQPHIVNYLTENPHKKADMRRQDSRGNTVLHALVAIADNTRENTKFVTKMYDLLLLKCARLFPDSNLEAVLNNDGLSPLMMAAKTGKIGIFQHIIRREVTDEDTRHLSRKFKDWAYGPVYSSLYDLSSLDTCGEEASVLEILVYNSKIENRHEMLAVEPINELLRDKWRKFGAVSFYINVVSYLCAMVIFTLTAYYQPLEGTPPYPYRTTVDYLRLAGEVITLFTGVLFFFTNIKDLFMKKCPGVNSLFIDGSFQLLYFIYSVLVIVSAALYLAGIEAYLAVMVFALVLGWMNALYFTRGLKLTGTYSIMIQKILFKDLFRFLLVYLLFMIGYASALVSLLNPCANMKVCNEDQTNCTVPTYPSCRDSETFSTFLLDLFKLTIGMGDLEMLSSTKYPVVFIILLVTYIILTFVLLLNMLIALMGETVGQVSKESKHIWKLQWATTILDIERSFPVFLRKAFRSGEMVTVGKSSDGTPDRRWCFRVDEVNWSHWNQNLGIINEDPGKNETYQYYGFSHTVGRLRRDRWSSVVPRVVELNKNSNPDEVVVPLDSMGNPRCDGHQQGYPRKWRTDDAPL", "assay": "TRPV4-mediated calcium influx in N2a cells with targeted expression of human TRPV4", "assay_type": "cell-based", "design": "expressed in transfected cells; host or cells: N2a cells", "settings": "2.5 μM inhibitor, pre-incubation 10 min, 10 nM GSK101"}}, "note": "Several values for one entry are separate records, joined by “and”; a condition that tells them apart may be missing. Identical values can stand only once."}
{"compound": "CN(CCc1ccc(Nc2nc(-c3ccccc3)cs2)cc1)Cc1ccccc1", "note": "[Compound 16-8]", "values": [{"measurement": "nocifensive behavior, in particular second phase", "setting": "[1]", "result": "significant attenuation"}, {"measurement": "IC50", "setting": "TRPV4 (rat)", "result": 450, "unit": "nM"}, {"measurement": "inhibition of TRPV4-mediated Ca++ influx, first round screening", "setting": "TRPV4 (rat)", "result": "virtually eliminated Ca++ influx"}, {"measurement": "IC50", "setting": "TRPA1 (mouse)", "result": "410 nM and 430 nM"}, {"measurement": "inhibitory activity against human TRPA1", "setting": "human TRPA1", "result": "showed inhibitory activity"}, {"measurement": "inhibition of TRPV4-mediated calcium influx (peak calcium concentration)", "setting": "TRPV4", "result": "most potent"}]}
{"compound": "CCN(CCc1ccc(Nc2nc(-c3ccccc3)cs2)cc1)Cc1ccccc1", "note": "[Compound 16-19]", "values": [{"measurement": "nocifensive behavior, in particular second phase", "setting": "[1]", "result": "significant attenuation"}, {"measurement": "IC50", "setting": "TRPV4 (rat)", "result": "590 nM and 810 nM"}, {"measurement": "increased potency versus parental compound GSK205", "setting": "TRPV4 (rat); from IC50 values, rat TRPV4 in N2a cells", "result": "~8", "unit": "fold"}, {"measurement": "inhibition of TRPV4-mediated Ca++ influx, first round screening", "setting": "TRPV4 (rat)", "result": "virtually eliminated Ca++ influx"}, {"measurement": "IC50", "setting": "TRPA1 (mouse)", "result": "430 nM and 410 nM"}, {"measurement": "inhibitory activity against human TRPA1", "setting": "human TRPA1", "result": "showed inhibitory activity"}, {"measurement": "inhibition of TRPV4-mediated calcium influx (peak calcium concentration)", "setting": "TRPV4", "result": "did not show enhanced inhibition over 16-8"}]}
{"compound": "CN(CCc1ccc(Nc2nc(-c3cccnc3)cs2)cc1)Cc1ccccc1", "note": "[GSK205]", "values": [{"measurement": "nocifensive behavior, in particular second phase", "setting": "[1]", "result": "lack of effect"}, {"measurement": "IC50", "setting": "TRPV4 (rat)", "result": 4190, "unit": "nM"}, {"measurement": "IC50", "setting": "TRPA1 (mouse)", "result": "5560 ± 400", "unit": "nM"}, {"measurement": "inhibitory activity against human TRPA1", "setting": "human TRPA1", "result": "did not inhibit TRPA1 activity"}, {"measurement": "inhibition of TRPV4-mediated calcium influx (peak calcium concentration)", "setting": "TRPV4", "result": "very low potency"}]}
